Data from patent publication US10246456B2, “IRAK4 inhibiting agents” (BIOGEN MA INC., priority 2014, dated 2019).

molecular target: IRAK4 (Homo sapiens (Human), UniProt Q9NWZ3); experiment: IRAK-4 AlphaScreen biochemical kinase assay; details: 1 nM IRAK4, 1 mM ATP, 3.5 h at RT
Procedure: The biochemical assay is in a AlphaScreen format. The kinase reaction is based on the IRAK-4 phosphorylation of a biotin labeled peptide. The phosphopeptide is incubated with anti-phosphothreonine antibody as well as streptavidin- and protein A-coated beads. Binding of the protein-A coated beads to the antibody and the streptavidin beads to the peptide, leads to an energy transfer from one bead to the other, ultimately producing a luminescent/fluorescent signal.

IRAK4, sequence (Q9NWZ3 whole entry, species assumed): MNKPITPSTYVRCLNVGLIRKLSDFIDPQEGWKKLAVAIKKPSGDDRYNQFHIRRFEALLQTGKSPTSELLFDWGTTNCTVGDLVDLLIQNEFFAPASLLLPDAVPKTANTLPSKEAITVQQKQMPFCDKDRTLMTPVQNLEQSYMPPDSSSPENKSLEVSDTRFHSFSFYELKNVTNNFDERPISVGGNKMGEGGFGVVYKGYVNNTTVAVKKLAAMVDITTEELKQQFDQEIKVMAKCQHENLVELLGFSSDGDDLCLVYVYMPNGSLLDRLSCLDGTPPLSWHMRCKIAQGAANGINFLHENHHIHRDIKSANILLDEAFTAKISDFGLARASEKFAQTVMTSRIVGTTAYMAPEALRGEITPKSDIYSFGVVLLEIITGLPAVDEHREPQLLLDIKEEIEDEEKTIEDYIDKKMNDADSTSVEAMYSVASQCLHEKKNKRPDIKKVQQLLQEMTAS

Compound | IC50 [nM]
1-(6-methylpyridin-2-yl)-1H-pyrazolo[4,3-c]pyridin-7-amine [Example 200] | < 100
CNC(C)c1cccc(-c2ccc3cnn(-c4cccc(C(F)(F)F)n4)c3c2)n1 (single isomer, unassigned) [Example 117, N-methyl-1-(6-(1-(6-(trifluoromethyl)pyridin-2-yl)-1H-indazol-6-yl)pyridin-2-yl)ethanamine] | < 100
CC(N)c1cccc(-c2ccc3cnn(-c4cccc(C(F)(F)F)n4)c3c2)n1 (single isomer, unassigned; isomer b) [Example 84, 1-(6-(1-(6-(trifluoromethyl)pyridin-2-yl)-1H-indazol-6-yl)pyridin-2-yl)ethanamine-isomer B] | < 100
Cc1cccc(-n2ncc3ccc(-c4cccc(N)n4)cc32)n1 [Example 1, 6-(1-(6-methylpyridin-2-yl)-1H-indazol-6-yl)pyridin-2-amine] | 100 to 1000
Cc1cccc(-n2ncc3ccc(-c4nccc(N)n4)cc32)n1 [Example 2, 2-(1-(6-methylpyridin-2-yl)-1H-indazol-6-yl)pyrimidin-4-amine] | 1000 to 10000
Cc1cccc(-n2ncc3ccc(-c4cc(N)ccn4)cc32)n1 [Example 3, 2-(1-(6-methylpyridin-2-yl)-1H-indazol-6-yl)pyridin-4-amine] | 1000 to 10000
Cc1cccc(-n2ncc3ccc(-c4cc(CN)ccn4)cc32)n1 [Example 5, (2-(1-(6-methylpyridin-2-yl)-1H-indazol-6-yl)pyridin-4-yl)methanamine] | 1000 to 10000
Cc1cccc(-n2ncc3ccc(-c4ccnc(N)c4)cc32)n1 [Example 6, 4-(1-(6-methylpyridin-2-yl)-1H-indazol-6-yl)pyridin-2-amine] | 100 to 1000
Cc1cccc(-n2ncc3ccc(-c4cccc(N)c4)cc32)n1 [Example 8, 3-(1-(6-methylpyridin-2-yl)-1H-indazol-6-yl)aniline] | 100 to 1000
Cc1cccc(-n2ncc3ccc(-c4nccc(CN)n4)cc32)n1 [Example 9, (2-(1-(6-methylpyridin-2-yl)-1H-indazol-6-yl)pyrimidin-4-yl)methanamine] | 100 to 1000
Cc1cccc(-n2ncc3ccc(-c4cncc(N)c4C)cc32)n1 [Example 10, 4-methyl-5-(1-(6-methylpyridin-2-yl)-1H-indazol-6-yl)pyridin-3-amine] | 1000 to 10000
CNc1cncc(-c2ccc3cnn(-c4cccc(C)n4)c3c2)c1 [Example 13, N-methyl-5-(1-(6-methylpyridin-2-yl)-1H-indazol-6-yl)pyridin-3-amine] | 100 to 1000
Cc1cccc(-n2ncc3ccc(-c4cccc(CN(C)C)n4)cc32)n1 [Example 14, N,N-dimethyl-1-(6-(1-(6-methylpyridin-2-yl)-1H-indazol-6-yl)pyridin-2-yl)methanamine] | 100 to 1000
Cc1cccc(-n2ncc3ccc(-c4cccc5c4CCNC5)cc32)n1 [Example 15, 5-(1-(6-methylpyridin-2-yl)-1H-indazol-6-yl)-1,2,3,4-tetrahydroisoquinoline] | 1000 to 10000
Cc1cccc(-n2ncc3ccc(-c4cccc5c4CCN(C)C5)cc32)n1 [Example 16, 2-methyl-5-(1-(6-methylpyridin-2-yl)-1H-indazol-6-yl)-1,2,3,4-tetrahydroisoquinoline] | 1000 to 10000
Cc1cccc(-n2ncc3ccc(-c4cccc5c4CN(C)C5)cc32)n1 [Example 17, 6-(2-methylisoindolin-4-yl)-1-(6-methylpyridin-2-yl)-1H-indazole] | 1000 to 10000

Compound | IC50 [nM]
N#Cc1cccc(-n2ncc3ccc(-c4cccc(N)c4)cc32)c1 [Example 20, 3-(6-(3-aminophenyl)-1H-indazol-1-yl)benzonitrile] | 100 to 1000
Nc1cccc(-c2ccc3cnn(-c4ccccn4)c3c2)c1 [Example 21, 3-(1-(pyridin-2-yl)-1H-indazol-6-yl)aniline] | 100 to 1000
N#Cc1cccc(-n2ncc3ccc(-c4cccc(N)c4)cc32)n1 [Example 22, 6-(6-(3-aminophenyl)-1H-indazol-1-yl)picolinonitrile] | < 100
Cc1ccc(-n2ncc3ccc(-c4cccc(N)c4)cc32)nc1C [Example 24, 3-(1-(5,6-dimethylpyridin-2-yl)-1H-indazol-6-yl)aniline] | 1000 to 10000
Nc1cncc(-c2ccc3cnn(-c4cccc(C5CC5)n4)c3c2)c1 [Example 27, 5-(1-(6-cyclopropylpyridin-2-yl)-1H-indazol-6-yl)pyridin-3-amine] | < 100
N#Cc1cccc(-n2ncc3ccc(-c4cncc(N)c4)cc32)n1 [Example 29, 6-(6-(5-aminopyridin-3-yl)-1H-indazol-1-yl)picolinonitrile] | < 100
Nc1cncc(-c2ccc3cnn(-c4cccc(C(=O)O)n4)c3c2)c1 [Example 30, 6-(6-(5-aminopyridin-3-yl)-1H-indazol-1-yl)picolinic acid] | 100 to 1000
NC(=O)c1cccc(-n2ncc3ccc(-c4cncc(N)c4)cc32)n1 [Example 31, 6-(6-(5-aminopyridin-3-yl)-1H-indazol-1-yl)picolinamide] | < 100
CNC(=O)c1cccc(-n2ncc3ccc(-c4cncc(N)c4)cc32)n1 [Example 32, 6-(6-(5-aminopyridin-3-yl)-1H-indazol-1-yl)-N-methylpicolinamide] | 100 to 1000
N#Cc1ccnc(-n2ncc3ccc(-c4cncc(N)c4)cc32)c1 [Example 35, 2-(6-(5-aminopyridin-3-yl)-1H-indazol-1-yl)isonicotinonitrile] | 100 to 1000
N#Cc1ccnc(-n2ncc3ccc(-c4cncc(N)c4)cc32)n1 [Example 37, 2-(6-(5-aminopyridin-3-yl)-1H-indazol-1-yl)pyrimidine-4-carbonitrile] | < 100
Cc1ccc(Cl)c(-n2ncc3ccc(-c4cncc(N)c4)cc32)n1 [Example 38, 5-(1-(3-chloro-6-methylpyridin-2-yl)-1H-indazol-6-yl)pyridin-3-amine] | 1000 to 10000
Cc1cccc(-c2ncc3ccc(-c4cncc(N)c4)cn23)n1 [Example 41, 5-(3-(6-methylpyridin-2-yl)imidazo[1,5-a]pyridin-6-yl)pyridin-3-amine] | < 100
Cc1cccc(-n2ncc3cc(F)c(-c4cncc(N)c4)cc32)n1 [Example 43, 5-(5-fluoro-1-(6-methylpyridin-2-yl)-1H-indazol-6-yl)pyridin-3-amine] | 100 to 1000
Cc1cccc(-n2ncc3cc(C)c(-c4cncc(N)c4)cc32)n1 [Example 44, 5-(5-methyl-1-(6-methylpyridin-2-yl)-1H-indazol-6-yl)pyridin-3-amine] | 1000 to 10000

Further lines, results first:

IC50 [nM] | Compound
< 100 | CC(N)c1cccc(-c2ccc3cnn(-c4cccc(C(F)(F)F)n4)c3c2)n1 (racemic) [Example 209, 1-(6-(1-(6-(trifluoromethyl)pyridin-2-yl)-1H-indazol-6-yl)pyridin-2-yl)ethanamine]
< 100 | CCC[C@H](N)c1cccc(-c2ccc3cnn(-c4cccc(C(C)O)n4)c3c2)n1 (single isomer, unassigned) [Example 417]
< 100 | CC(N)c1cccc(-c2ccc3cnn(-c4cccc(C(F)(F)F)n4)c3c2)n1 (single isomer, unassigned; isomer a) [Example 83, 1-(6-(1-(6-(trifluoromethyl)pyridin-2-yl)-1H-indazol-6-yl)pyridin-2-yl)ethanamine-isomer A]
100 to 1000 | Cc1cccc(-n2ncc3ccc(-c4cccc(CN)n4)cc32)n1 [Example 4, (6-(1-(6-methylpyridin-2-yl)-1H-indazol-6-yl)pyridin-2-yl)methanamine]
1000 to 10000 | Cc1cccc(-n2ncc3ccc(-c4cc(N)cnc4O)cc32)n1 [Example 11, 5-amino-3-(1-(6-methylpyridin-2-yl)-1H-indazol-6-yl)pyridin-2-ol]
1000 to 10000 | Cc1cccc(-n2ncc3ccc(-c4cncc(N)c4O)cc32)n1 [Example 12, 3-amino-5-(1-(6-methylpyridin-2-yl)-1H-indazol-6-yl)pyridin-4-ol]
< 100 | CNCc1cccc(-c2ccc3cnn(-c4cccc(C)n4)c3c2)c1 [Example 18, N-methyl-1-(3-(1-(6-methylpyridin-2-yl)-1H-indazol-6-yl)phenyl)methanamine]
1000 to 10000 | Cc1cc(C)nc(-n2ncc3ccc(-c4cccc(N)c4)cc32)c1 [Example 23, 3-(1-(4,6-dimethylpyridin-2-yl)-1H-indazol-6-yl)aniline]
< 100 | Nc1cccc(-c2ccc3cnn(-c4cccc(C(F)(F)F)n4)c3c2)c1 [Example 25, 3-(1-(6-(trifluoromethyl)pyridin-2-yl)-1H-indazol-6-yl)aniline]
1000 to 10000 | Nc1cncc(-c2ccc3cnn(-c4cccc(C5CCC5)n4)c3c2)c1 [Example 28, 5-(1-(6-cyclobutylpyridin-2-yl)-1H-indazol-6-yl)pyridin-3-amine]
100 to 1000 | N#Cc1cccc(-n2ncc3ccc(-c4cncc(N)c4)cc32)c1 [Example 33, 3-(6-(5-aminopyridin-3-yl)-1H-indazol-1-yl)benzonitrile]
100 to 1000 | Cc1cc(C#N)cc(-n2ncc3ccc(-c4cncc(N)c4)cc32)n1 [Example 34, 2-(6-(5-aminopyridin-3-yl)-1H-indazol-1-yl)-6-methylisonicotinonitrile]
< 100 | Cc1ccnc(-n2ncc3ccc(-c4cncc(N)c4)cc32)n1 [Example 36, 5-(1-(4-methylpyrimidin-2-yl)-1H-indazol-6-yl)pyridin-3-amine]
100 to 1000 | Cc1ccnc(-n2ncc3ccc(-c4cncc(N)c4)cc32)c1 [Example 39, 5-(1-(4-methylpyridin-2-yl)-1H-indazol-6-yl)pyridin-3-amine]
< 100 | Nc1cncc(-c2ccc3cnn(-c4cccc(C(F)(F)F)n4)c3c2)c1 [Example 40, 5-(1-(6-(trifluoromethyl)pyridin-2-yl)-1H-indazol-6-yl)pyridin-3-amine]
< 100 | Cc1cccc(-c2ncc3ccc(-c4cccc(N)c4)cn23)n1 [Example 42, 3-(3-(6-methylpyridin-2-yl)imidazo[1,5-a]pyridin-6-yl)aniline]
